Values after ≈ are worked out from the molar mass of the structure shown.
How the values were obtained:
Format in all cases: functional
[1] = test system: Mycobacterium tuberculosis; experiment: Antimycobacterial activity against Mycobacterium tuberculosis H37Rv overexpressing folP1 by alamar blue staining based microplate analysis
[2] = test system: Mycobacterium tuberculosis; experiment: Antimycobacterial activity against Mycobacterium tuberculosis H37Rv overexpressing folC by alamar blue staining based microplate analysis
[3] = test system: Mycobacterium tuberculosis; experiment: Antimycobacterial activity against Mycobacterium tuberculosis H37Rv overexpressing dfrA by alamar blue staining based microplate analysis
[4] = test system: Mycobacterium tuberculosis; experiment: Antimycobacterial activity against Mycobacterium tuberculosis H37Rv overexpressing ribD by alamar blue staining based microplate analysis

SMILES | MIC [1] | MIC [2] | MIC [3] | MIC [4]
O=C(Nc1ccc(C(=O)[O-])c(O)c1)c1ccc2ccccc2n1.[Na+] | 8 µg/mL | 8 µg/mL | 8 µg/mL | 8 µg/mL
O=C(Nc1ccc(C(=O)O)c(O)c1)c1ccc2ccccc2n1 | 8 µg/mL (≈ 25.9 µM) | 8 µg/mL (≈ 25.9 µM) | 8 µg/mL (≈ 25.9 µM) | 8 µg/mL (≈ 25.9 µM)
Nc1ccc(C(=O)O)c(O)c1 [AMINOSALICYLIC ACID] | 0.02 µg/mL (≈ 0.131 µM) | 0.02 µg/mL (≈ 0.131 µM) | > 5 µg/mL | 2.5 µg/mL (≈ 16.3 µM)

Reference: ChEMBL document CHEMBL5625173, “Antimycobacterial pyridine carboxamides: From design to in vivo activity” (Eur J Med Chem, 2023)
